Measured values as given in patent US20180353521A1, “METHOD FOR TREATING STROKE OR REDUCING NERVE INJURY” (priority 2017, published 2018).
Entries after “also recorded” stand apart in the source; their conditions may differ.

Experiments:
[1] = system: Middle Cerebral Artery Occlusion, MCAO/Reperfusion Model (ischemic stroke); experiment: Analysis of brain infarct region (TTC staining) after MCAO; type: in vivo, male SD rats; settings: 50 mg/kg given 10 minutes before MCAO; for reduction of brain infarct volume vs vehicle control group: Student's T test; for reduction of infarct size at positions from the front end of the brain: brain taken 24 hours after MCAO, 2 mm slices, FIG. 4B
[2] = Weight analysis in MCAO/reperfusion model; settings: 24 hours after MCAO surgery, 50 mg/kg; for retardation in body weight decrease vs vehicle control group: FIG. 5; for body weight, AVG, 24 hr: average value
Text: (§1) Test animals (250-350 g of male SD rats in this example) were anesthetized with 2% isoflurane in N2O/O2 (70%/30%). The right common carotid artery (right CCA), external carotid artery (ECA), and internal carotid artery (ICA) were isolated.
(§2) Cutting along the midline of the scalp, the nylon monofilament (the front of the nylon monofilament was covered with polysiloxane) was inserted through the external carotid artery along the internal carotid artery and extending to circle of Willis of the brain, resulting in obstruction of the middle cerebral artery. After an hour of ischemia, the nylon monofilament was removed and the brain's blood was reperfused.
(§3) The above-mentioned prevention model experiment further comprised a blank control group (sham) which were undergone no MCAO surgery and administered without the compound; and a vehicle control group (Vehicle) which was undergone MCAO surgery and administered with water in place of the compound.

[3] = system: Middle Cerebral Artery Occlusion, MCAO/Reperfusion Model (ischemic stroke); experiment: Neurobehavioral assessment after MCAO surgery; settings: 50 mg/kg given 10 minutes before MCAO, 24 hours after MCAO surgery, Student's T test vs Vehicle, FIG. 3
Text: as §1, §2, §3
Neurobehavioral assessment in one embodiment of the present invention was performed on the rats at 0.5, 1.5 and 24 hours after MCAO surgery on each group of rats, and scored according to the following states.
Score 0: lifting the rat by its tail to about 20 to 30 cm above the ground and observing the state of stretching the forelimbs, at which state the forelimb of the rat could stretch towards the ground with balance and no occurrences of other nerve injuries is shown in FIG. 2(A), representing the normal rat.
Score 1: lifting the rat by its tail to about 20 to 30 cm above the ground and observing the state of stretching the forelimb.
Score 2: the rat was placed on the ground and a lateral thrust was applied. The resistance of the rat to the thrust ipsilateral to the damaged area of the brain was decreased.
Score 3: the rat continued to go around in circles towards the contralateral side of damaged area of the brain and incapable of going straight when it was set free to exercise.
The Student's T test was adopted to determine whether there was difference between the groups administered with each compound and the Vehicle group. If the p value was less than or equal to 0.05, it represented significant difference.

## COc1cc(C)c(OC)c2c1OCO2 [AR-04-15S, 4,7-Dimethoxy-5-methyl-1,3-benzodioxole]
[1]; 24 hours after MCAO, FIG. 4C, listed as AR-04-155
  reduction of brain infarct volume vs vehicle control group: significant effects in reducing the infarct; also recorded: statistically significant effect in reducing the brain infarct volume
[1]
  reduction of infarct size at positions from the front end of the brain: significant effect in reducing the infarct size at 7 mm, 9 mm and 11 mm
[2]
  retardation in body weight decrease vs vehicle control group: significant retardation in body weight decrease
  body weight, AVG, 24 hr: 243.2
[3]; listed as AR-04-155
  nerve injury (neurobehavioral assessment score) vs Vehicle: recovery tendency; also recorded: significant effects in reducing nerve injury

## C=C(CC[C@@H](C(=O)O)[C@H]1CC[C@@]2(C)C3=CC[C@H]4C(C)(C)[C@@H](O)CC[C@]4(C)C3=CC[C@]12C)C(C)C [AR-04-41S, dehydroeburicoic acid]
[1]; 24 hours after MCAO, FIG. 4C
  total infarct volume (%) of the brain: less than 10%
  reduction of brain infarct volume vs vehicle control group: statistically significant effect in reducing the brain infarct volume
[1]; 24 hours after MCAO, FIG. 4C, listed as AR-04-415
  reduction of brain infarct volume vs vehicle control group: best effect on reducing the infarct volume
[1]
  reduction of infarct size at positions from the front end of the brain: significant effect in reducing the infarct size at 3 mm, 7 mm, 9 mm, 11 mm, and 13 mm; also recorded: better efficacy at 7 mm
[2]
  body weight, AVG, 24 hr: 266.5
[3]
  nerve injury (neurobehavioral assessment score) vs Vehicle: statistically significant in efficacy; also recorded: statistically significant effect in reducing nerve injury
[3]; listed as AR-04-415
  nerve injury (neurobehavioral assessment score) vs Vehicle: recovery tendency

## C=C(CC[C@@H](C(=O)O)[C@H]1C[C@H](O)[C@@]2(C)C3=CC[C@H]4C(C)(C)[C@@H](O)CC[C@]4(C)C3=CC[C@]12C)C(C)C [AR-04-1822S, dehydrosulphurenic acid (dehydrosulfurenic acid)]
[1]; 24 hours after MCAO, FIG. 4C
  reduction of brain infarct volume vs vehicle control group: significant effects in reducing the infarct
[1]; 24 hours after MCAO, FIG. 4C, listed as AR-04-18225
  reduction of brain infarct volume vs vehicle control group: statistically significant effect in reducing the brain infarct volume
[1]; listed as AR-04-18225
  reduction of infarct size at positions from the front end of the brain: significant effect in reducing the infarct size at 3 mm, 5 mm, 7 mm, 9 mm, 11 mm, and 13 mm; also recorded: significantly better effect in reducing the infarct size at 7 mm and 9 mm
[2]
  retardation in body weight decrease vs vehicle control group: significant retardation in body weight decrease
  body weight, AVG, 24 hr: 270.0
[3]
  nerve injury (neurobehavioral assessment score) vs Vehicle: statistically significant in efficacy
[3]; listed as AR-04-18225
  nerve injury (neurobehavioral assessment score) vs Vehicle: recovery tendency; also recorded: statistically significant effect in reducing nerve injury
